The values that follow come from patent US10093683B2, “Factor XIa inhibitors” (Merck Sharp & Dohme Corp., priority 2014, dated 2018).

SMILES strings stand for the structures.

Usually Ki stands for the equilibrium dissociation constant of an inhibitor or competing ligand from its target.

The target of one experiment is human Factor XIa (Homo sapiens (Human), UniProt P03951). The experiment in a line: Factor XIa Assay. In kind it is biochemical. The conditions noted are these: purified human Factor XIa 40 pM, Z-Gly-Pro-Arg-AFC 100 μM, pH 7.4; read-out: FXIa Ki. Here is the method: The effectiveness of a compound of the present invention as an inhibitor of Coagulation Factor XIa can be determined using a relevant purified serine protease, and an appropriate synthetic substrate. The rate of hydrolysis of the chromogenic or fluorogenic substrate by the relevant serine protease was measured both in the absence and presence of compounds of the present invention. Assays were conducted at room temperature or at 37° C. […] A decrease in the rate of fluorescence change in the presence of inhibitor is indicative of enzyme inhibition. Such methods are known to one skilled in the art. The results of this assay are expressed as the inhibitory constant, Ki.
Chain of human Factor XIa (P03951 388-625): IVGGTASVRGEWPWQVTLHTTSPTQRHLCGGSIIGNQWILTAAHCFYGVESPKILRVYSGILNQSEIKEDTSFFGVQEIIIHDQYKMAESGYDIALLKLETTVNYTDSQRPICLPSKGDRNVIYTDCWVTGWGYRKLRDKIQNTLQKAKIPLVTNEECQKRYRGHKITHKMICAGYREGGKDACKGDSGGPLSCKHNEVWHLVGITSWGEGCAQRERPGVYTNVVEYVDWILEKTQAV
Chain of human Factor XIa (P03951 19-387 partner): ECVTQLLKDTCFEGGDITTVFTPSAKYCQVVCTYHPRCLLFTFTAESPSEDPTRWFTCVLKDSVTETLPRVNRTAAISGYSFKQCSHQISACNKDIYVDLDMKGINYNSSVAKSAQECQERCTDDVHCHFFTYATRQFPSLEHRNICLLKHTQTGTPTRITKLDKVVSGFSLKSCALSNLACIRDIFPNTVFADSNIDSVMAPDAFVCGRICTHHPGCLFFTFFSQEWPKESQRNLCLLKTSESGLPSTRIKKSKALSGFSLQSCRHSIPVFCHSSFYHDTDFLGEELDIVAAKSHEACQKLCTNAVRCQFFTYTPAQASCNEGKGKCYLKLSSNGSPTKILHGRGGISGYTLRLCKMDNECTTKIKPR
Factor XIa determinations were made in 50 mM HEPES buffer at pH 7.4 containing 150 mM NaCl, 5 mM CaCl2, and 0.1% PEG 8000 (polyethylene glycol; JT Baker or Fisher Scientific). Determinations were made using purified human Factor XIa at a final concentration of 40 pM (Sekisui Diagnostics) and he synthetic substrate, Z-Gly-Pro-Arg-AFC, TFA salt (Sigma #C0980) at a concentration of 100 μM.
Times required to achieve equilibration between enzyme and inhibitor were determined in control experiments. Initial velocities of product formation in the absence (Vo) or presence of inhibitor (Vi) were measured. Assuming competitive inhibition, and that unity is negligible compared Km/[S], [I]/e, and [I]/e (where [S], [I], and e respectively represent the total concentrations, of substrate, inhibitor and enzyme), the equilibrium constant (Ki) for dissociation of the inhibitor from the enzyme can be obtained from the dependence of Vo/Vi on [I] shown in the following equation.
As for `COC(=O)Nc1ccc(C(=O)N[C@@H](CC[S+](C)[O-])C(=O)N2CCC[C@@]3(C2)OC(=O)Nc2ccc(Cl)cc23)cc1` (stereo partly drawn) [Example 56, methyl (4-(((2S)-1-((R)-6-chloro-2-oxo-1,2-dihydrospiro[benzo[d][1,3]oxazine-4,3′-piperidin]-1′-yl)-4-(methylsulfinyl)-1-oxobutan-2-yl)carbamoyl)phenyl)carbamate], the Ki came out at 102 nM.

For `COC(=O)Nc1ccc(C(=O)N[C@@H](C)C(=O)N2CCC[C@@]3(C2)OC(=O)Nc2ccc(Cl)cc23)cc1` [Example 55, methyl (4-(((S)-1-((R)-6-chloro-2-oxo-1,2-dihydrospiro[benzo[d][1,3]oxazine-4,3′-piperidin]-1′-yl)-1-oxopropan-2-yl)carbamoyl)phenyl)carbamate], the Ki is 93.2 nM.

For `COC(=O)Nc1ccc(C(=O)N[C@@H](CC2CCCC2)C(=O)N2CCC[C@@]3(C2)OC(=O)Nc2ccc(Cl)cc23)cc1` [Example 73, methyl (4-(((S)-1-((R)-6-chloro-2-oxo-1,2-dihydrospiro[benzo[d][1,3]oxazine-4,3′-piperidin]-1′-yl)-3-cyclopentyl-1-oxopropan-2-yl)carbamoyl)phenyl)carbamate], the inhibitory constant (Ki) was 32 nM.

With `COC(=O)Nc1ccc(C(=O)N[C@@H](CC(=O)N2CC(N(C)C)C2)C(=O)N2CCC[C@@]3(C2)OC(=O)Nc2ccc(Cl)cc23)cc1` [Example 96, methyl (4-(((S)-1-((R)-6-chloro-2-oxo-1,2-dihydrospiro[benzo[d][1,3]oxazine-4,3′-piperidin]-1′-yl)-4-(3-(dimethylamino)azetidin-1-yl)-1,4-dioxobutan-2-yl)carbamoyl)phenyl)carbamate], the Ki worked out at 203 nM.

`COC(=O)Nc1ccc(C(=O)N[C@@H](Cc2ccccc2)C(=O)N2CCC3(CC(=O)Nc4ccc(Cl)cc43)C2)cc1` (stereo partly drawn) [Example 18, methyl (4-(((2S)-1-(6′-chloro-2′-oxo-2′,3′-dihydro-1′H-spiro[pyrrolidine-3,4′-quinolin]-1-yl)-1-oxo-3-phenylpropan-2-yl)carbamoyl)phenyl)carbamate]: the Ki was determined as 5000 nM.

As for `COC(=O)Nc1ccc(C(=O)NCC(=O)N2CCC3(C2)OC(=O)Nc2ccc(Cl)cc23)cc1` (racemic) [Example 23, methyl (4-((2-(6-chloro-2-oxo-1,2-dihydrospiro[benzo[d][1,3]oxazine-4,3′-pyrrolidin]-1′-yl)-2-oxoethyl)carbamoyl)phenyl)carbamate], the Ki was 248 nM.

With `NC(=O)c1n[nH]c2c1CN(C(=O)N[C@@H](Cc1ccccc1)C(=O)N1CCC3(C1)OC(=O)Nc1ccc(Cl)cc13)C2` (stereo partly drawn) [Example 278, N5-((2S)-1-(6-chloro-2-oxo-1,2-dihydrospiro[benzo[d][1,3]oxazine-4,3′-pyrrolidin]-1′-yl)-1-oxo-3-phenylpropan-2-yl)-4,6-dihydropyrrolo[3,4-c]pyrazole-3,5(1H)-dicarboxamide], the Ki came out at 5000 nM.

Turning to `O=C1Nc2ccc(Cl)cc2[C@@]2(CCCN(C(=O)[C@H](Cc3ccccc3)Nc3ccc(-c4cc[nH]n4)cn3)C2)O1` [Example 296, (R)-1′-((5-(1H-pyrazol-3-yl)pyridin-2-yl)-L-phenylalanyl)-6-chlorospiro[benzo[d][1,3]oxazine-4,3′-piperidin]-2(1H)-one], the Ki turned out to be 10000 nM.

Take `O=C1Nc2ccc(Cl)cc2[C@@]2(CCN(C(=O)[C@H](Cc3ccccc3)Nc3ncc(C(=O)O)cc3F)C2)O1` [Example 294, 6-(((S)-1-((R)-6-chloro-2-oxo-1,2-dihydrospiro[benzo[d][1,3]oxazine-4,3′-pyrrolidin]-1′-yl)-1-oxo-3-phenylpropan-2-yl)amino)-5-fluoronicotinic acid]: the Ki was determined as 10000 nM.

With `COC(=O)Nc1ccc(C(=O)N[C@@](C)(Cc2ccccc2)C(=O)N2CCC3(C2)OC(=O)Nc2ccc(Cl)cc23)cc1` (stereo partly drawn) [Example 24, methyl (4-(((2S)-1-(6-chloro-2-oxo-1,2-dihydrospiro[benzo[d][1,3]oxazine-4,3′-pyrrolidin]-1′-yl)-2-methyl-1-oxo-3-phenylpropan-2-yl)carbamoyl)phenyl)carbamate], the Ki was at least 5000 nM.

As to `COC(=O)Nc1ccc(C(=O)N[C@@H](Cc2ccccc2)C(=O)N2CCC3(C2)NC(=O)Nc2ccc(Cl)cc23)cc1` (single isomer, unassigned) [Example 19b], the Ki was found to be 708 nM.

Take `COC(=O)Nc1ccc(-c2ncc(C(Cc3ccccc3)C(=O)N3CC[C@@]4(C3)OC(=O)Nc3ccc(Cl)c(F)c34)[nH]2)cc1` (stereo partly drawn) [Example 130, methyl (4-(5-(1-((R)-6-chloro-5-fluoro-2-oxo-1,2-dihydrospiro[benzo[d][1,3]oxazine-4,3′-pyrrolidin]-1′-yl)-1-oxo-3-phenylpropan-2-yl)-1H-imidazol-2-yl)phenyl)carbamate]: the Ki worked out at 91.9 nM.

Take `COC(=O)Nc1ccc(C(=O)N[C@@H](CC2CC2)C(=O)N2CC[C@]3(C2)OC(=O)Nc2ccc(Cl)cc23)cc1` [Example 21a, methyl (4-(((S)-1-((S)-6-chloro-2-oxo-1,2-dihydrospiro[benzo[d][1,3]oxazine-4,3′-pyrrolidin]-1′-yl)-3-cyclopropyl-1-oxopropan-2-yl)carbamoyl)phenyl)carbamate]: the Ki turned out to be 726 nM.

Regarding `O=C(Nc1ccc(C(=O)O)cc1)N[C@@H](Cc1ccccc1)C(=O)N1CCC2(C1)OC(=O)Nc1ccc(Cl)cc12` (stereo partly drawn) [Example 277, 4-(3-((2S)-1-(6-chloro-2-oxo-1,2-dihydrospiro[benzo[d][1,3]oxazine-4,3′-pyrrolidin]-1′-yl)-1-oxo-3-phenylpropan-2-yl)ureido)benzoic acid], the Ki came out at 5000 nM.

With `COC(=O)Nc1ccc(C(=O)N[C@@H](Cc2ccccc2)C(=O)N2CC[C@@]3(C2)OC(=O)Nc2ccccc23)cc1` [Example 2, methyl (4-(((S)-1-oxo-1-((R)-2-oxo-1,2-dihydrospiro[benzo[d][1,3]oxazine-4,3′-pyrrolidin]-1′-yl)-3-phenylpropan-2-yl)carbamoyl)phenyl)carbamate], the Ki is 220 nM.

In the case of `COC(=O)Nc1ccc(C(=O)N[C@H](C(=O)N2CCC3(C2)OC(=O)Nc2ccc(Cl)cc23)c2ccccc2)cc1` (stereo partly drawn) [Example 29, methyl (4-(((1S)-2-(6-chloro-2-oxo-1,2-dihydrospiro[benzo[d][1,3]oxazine-4,3′-pyrrolidin]-1′-yl)-2-oxo-1-phenylethyl)carbamoyl)phenyl)carbamate], the Ki is at least 5000 nM.

As to `COC(=O)Nc1ccc(C(=O)N[C@@H](Cc2c[nH]c3ccccc23)C(=O)N2CCC[C@@]3(C2)OC(=O)Nc2ccc(Cl)c(F)c23)cc1` [Example 70, methyl (4-(((S)-1-((R)-6-chloro-5-fluoro-2-oxo-1,2-dihydrospiro[benzo[d][1,3]oxazine-4,3′-piperidin]-1′-yl)-3-(1H-indol-3-yl)-1-oxopropan-2-yl)carbamoyl)phenyl)carbamate], the Ki was 20.7 nM.

`O=C1Nc2ccc(Cl)cc2[C@@]2(CCCN(C(=O)C(Cc3ccc(F)cc3)c3nc4ccc(C(=O)O)cc4[nH]3)C2)O1` (single isomer, unassigned) [Example 132A (isomer B)]: the Ki was determined as 449 nM.

In the case of `O=C1Nc2ccc(Cl)cc2[C@@]2(CCCN(C(=O)C(CC3CC3)Nc3n[nH]c4cc(F)ccc34)C2)O1` (stereo partly drawn) [Example 135, (4R)-6-chloro-1′-(3-cyclopropyl-2-((6-fluoro-1H-indazol-3-yl)amino)propanoyl)spiro[benzo[d][1,3]oxazine-4,3′-piperidin]-2(1H)-one], the Ki was above 8750 nM.

Turning to `O=C1Nc2ccc(Cl)c(F)c2[C@@]2(CCCN(C(=O)[C@H](Cc3cnccn3)NC(=O)c3ccc4[nH]c(=O)ccc4c3)C2)O1` [Example 114, N-((S)-1-((R)-6-chloro-5-fluoro-2-oxo-1,2-dihydrospiro[benzo[d][1,3]oxazine-4,3′-piperidin]-1′-yl)-1-oxo-3-(pyrazin-2-yl)propan-2-yl)-2-oxo-1,2-dihydroquinoline-6-carboxamide], the Ki was found to be 74.4 nM.

Staying with this experiment, now noted: read-out: FXIa Ki.
On to `Nc1ccc(C(=O)N[C@@H](CC2CC2)C(=O)N2CCC[C@@]3(C2)OC(=O)Nc2ccc(Cl)cc23)cn1` [Example 205], for which the Ki turned out to be 72.2 nM.

On to `O=C1Nc2ccc(Cl)cc2C2(CCN(C(=O)[C@H](Cc3ccccc3)NC(=O)c3ccon3)C2)O1` (some centres unmarked) [Example 156], for which the Ki is 2150 nM.

`COC(=O)NC12CC(C(=O)N[C@@H](Cc3ccccc3)C(=O)N3CCC[C@@]4(C3)OC(=O)Nc3ccc(Cl)c(F)c34)(C1)C2` [Example 238]: the Ki turned out to be 104 nM.

For the molecule `NC(=O)c1n[nH]c2cc(C(=O)N[C@@H](Cc3ccccc3)C(=O)N3CC[C@@]4(C3)OC(=O)Nc3ccc(Cl)cc34)ccc12` [Example 219], the Ki stood at 2310 nM.

Consider `O=C1Nc2ccc(Cl)cc2C2(CCN(C(=O)[C@H](Cc3ccccc3)NC(=O)c3ccc4[nH]cnc4c3)C2)O1` (some centres unmarked) [Example 176], for which the Ki was 59.8 nM.

In the case of `O=C1Cc2ccc(C(=O)N[C@@H](Cc3ccccc3)C(=O)N3CCC4(C3)OC(=O)Nc3ccc(Cl)cc34)cc2N1` (some centres unmarked) [Example 174], the Ki amounted to 261 nM.
